Structures are written as SMILES.

For four compounds, activity results are on record in patent US5399543A, “3-[4-(phenylmethoxy)phenyl]-1-substituted-6-haloalkyl-uracil herbicides” (FMC Corporation, priority 1993, dated 1995).

The subject of assay [1] is Green foxtail. Nature of the assay: Preemergence herbicidal activity, green foxtail. Format: in vivo. The note with it: Setaria viridis, pre-emergence, 0.3 kg/ha, after 17-21 days, read-out: Preemergence herbicidal activity (% control), Green foxtail. The procedure, abridged:
(§1)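 Preemergence seeds were covered with sand/sandy loam topping soil and sprayed at the soil surface, then watered immediately. Postemergence plants, sown 8-12 days before, were sprayed on foliage and kept dry for 24 h. Both were rated for percent control after 17-21 days.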

Assay [2] relates to Soybean. In words: Postemergence herbicidal activity, soybean. Type of assay: in vivo, Glycine max var. Williams. The note with it: Glycine max, post-emergence, 0.3 kg/ha, after 17-21 days, read-out: Postemergence herbicidal activity (% control), Soybean. Put shortly:
(§2)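 Seeds sown in sandy loam flats under 0.5 cm topping soil; postemergence flats planted 8-12 days earlier and grown in greenhouse. Compound in water/acetone (50/50) with 0.5% v/v sorbitan monolaurate, sprayed at 1000 L/ha coverage. Percent control (0-100 scale) rated after 17-21 days.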

Assay [3] has as its system Cocklebur. In words: Postemergence herbicidal activity, cocklebur. Format: in vivo, Xanthium pensylvanicum. The note with it: Xanthium strumarium, post-emergence, 0.3 kg/ha, after 17-21 days, read-out: Postemergence herbicidal activity (% control), Cocklebur. The procedure, abridged:
as §2

The test system of assay [4] is Johnsongrass. In words: Preemergence herbicidal activity, johnsongrass. Type of assay: in vivo. As to conditions: Sorghum halepense, pre-emergence, 0.3 kg/ha, after 17-21 days, read-out: Preemergence herbicidal activity (% control), Johnsongrass. The procedure, abridged: as §1
Assay [5] has as its system Morningglory. Nature of the assay: Preemergence herbicidal activity, morningglory. Format: in vivo, Ipomea lacunosa or Ipomea hederacea. The note with it: Ipomoea, pre-emergence, 0.3 kg/ha, after 17-21 days, read-out: Preemergence herbicidal activity (% control), Morningglory. The procedure, abridged:
as §1

Assay [6] concerns Soybean. In words: Preemergence herbicidal activity, soybean. Type of assay: in vivo, Glycine max var. Williams. The note with it: Glycine max, pre-emergence, 0.3 kg/ha, after 17-21 days, read-out: Preemergence herbicidal activity (% control), Soybean. Put shortly:
as §1

Assay [7] relates to Blackgrass. In words: Preemergence herbicidal activity, blackgrass. Format: in vivo, Aloepecurus myosuroides. The note with it: Alopecurus myosuroides, pre-emergence, 0.3 kg/ha, after 17-21 days, read-out: Preemergence herbicidal activity (% control), Blackgrass. Put shortly: as §2
The test system of assay [8] is Chickweed. In words: Preemergence herbicidal activity, chickweed. Type of assay: in vivo. As to conditions: Stellaria media, pre-emergence, 0.3 kg/ha, after 17-21 days, read-out: Preemergence herbicidal activity (% control), Chickweed. The procedure, abridged: as §1
Assay [9] has as its system Velvetleaf. Nature of the assay: Postemergence herbicidal activity, velvetleaf. Type of assay: in vivo. The note with it: Abutilon theophrasti, post-emergence, 0.3 kg/ha, after 17-21 days, read-out: Postemergence herbicidal activity (% control), Velvetleaf. The procedure, abridged:
as §2

The subject of assay [10] is Corn. In words: Preemergence herbicidal activity, corn. As to conditions: Zea mays, pre-emergence, 0.3 kg/ha, after 17-21 days, read-out: Preemergence herbicidal activity (% control), Corn. Type of assay: in vivo, Zea mays var. Agway 425X. The procedure, abridged:
as §1

The test system of assay [11] is Morningglory. Nature of the assay: Postemergence herbicidal activity, morningglory. Type of assay: in vivo, Ipomea lacunosa or Ipomea hederacea. As to conditions: Ipomoea, post-emergence, 0.3 kg/ha, after 17-21 days, read-out: Postemergence herbicidal activity (% control), Morningglory. Put shortly:
as §2

Assay [12] deals with Blackgrass. In words: Postemergence herbicidal activity, blackgrass. Format: in vivo, Aloepecurus myosuroides. The note with it: Alopecurus myosuroides, post-emergence, 0.3 kg/ha, after 17-21 days, read-out: Postemergence herbicidal activity (% control), Blackgrass. Put shortly:
as §2

Assay [13] relates to Velvetleaf. Nature of the assay: Preemergence herbicidal activity, velvetleaf. Type of assay: in vivo. As to conditions: Abutilon theophrasti, pre-emergence, 0.3 kg/ha, after 17-21 days, read-out: Preemergence herbicidal activity (% control), Velvetleaf. The procedure, abridged:
as §1

In assay [14] the test system is Cocklebur. Nature of the assay: Preemergence herbicidal activity, cocklebur. Type of assay: in vivo, Xanthium pensylvanicum. The note with it: Xanthium strumarium, pre-emergence, 0.3 kg/ha, after 17-21 days, read-out: Preemergence herbicidal activity (% control), Cocklebur. The procedure, abridged:
as §1

The subject of assay [15] is Corn. Nature of the assay: Postemergence herbicidal activity, corn. Format: in vivo, Zea mays var. Agway 425X. As to conditions: Zea mays, post-emergence, 0.3 kg/ha, after 17-21 days, read-out: Postemergence herbicidal activity (% control), Corn. Put shortly:
as §2

Assay [16] deals with Green foxtail. In words: Postemergence herbicidal activity, green foxtail. Format: in vivo. As to conditions: Setaria viridis, post-emergence, 0.3 kg/ha, after 17-21 days, read-out: Postemergence herbicidal activity (% control), Green foxtail. The procedure, abridged: as §2
Assay [17] deals with Johnsongrass. In words: Postemergence herbicidal activity, johnsongrass. Type of assay: in vivo. The note with it: Sorghum halepense, post-emergence, 0.3 kg/ha, after 17-21 days, read-out: Postemergence herbicidal activity (% control), Johnsongrass. The procedure, abridged: as §2
Assay [18] relates to Chickweed. In words: Postemergence herbicidal activity, chickweed. Type of assay: in vivo. The note with it: Stellaria media, post-emergence, 0.3 kg/ha, after 17-21 days, read-out: Postemergence herbicidal activity (% control), Chickweed. The procedure, abridged:
as §2

Assay [19] concerns Wheat. Nature of the assay: Postemergence herbicidal activity, wheat. Type of assay: in vivo, Triticum aestivum var. Wheaton. As to conditions: Triticum aestivum, post-emergence, 0.3 kg/ha, after 17-21 days, read-out: Postemergence herbicidal activity (% control), Wheat. Put shortly: as §2
The subject of assay [20] is Wheat. Nature of the assay: Preemergence herbicidal activity, wheat. Format: in vivo, Triticum aestivum var. Wheaton. The note with it: Triticum aestivum, pre-emergence, 0.3 kg/ha, after 17-21 days, read-out: Preemergence herbicidal activity (% control), Wheat. Put shortly:
as §1

Take `Cc1cc(OCc2ccccc2)ccc1-n1c(=O)cc(C(F)(F)F)n(C)c1=O` [Compound 12]: the activity at 300 g/ha in [1] was determined as 80%; in assay [2], 20%; in [3], 0%; in [4], 60%; in assay [5], 10%; in assay [6] it was 10%. The activity at 300 g/ha in assay [7] amounted to 0%; in [8] it was 0%; in assay [9] it was 30%; in [10], 40%; in assay [11], 20%; in assay [12], 0%. The activity at 300 g/ha in assay [13] worked out at 60%; in assay [14], 0%; in assay [15], 0%; in [16], 50%; in [17], 0%; in [18], 0%. For the same compound, the activity at 300 g/ha in assay [19] and in assay [20] was 0% throughout.
As to `Cn1c(C(F)(F)F)cc(=O)n(-c2ccc(OCc3ccc(C(F)(F)F)cc3)cc2)c1=O` [Compound 22], the activity at 300 g/ha in assay [1] is 100%; in assay [2] it was 50%; in assay [3] it was 40%; in [4] it was 70%; in assay [5], 90%; in assay [6], 90%. The activity at 300 g/ha in [7] came to 15%; in [8] it was 100%; in assay [9], 40%; in [10], 30%; in assay [11], 95%; in assay [12], 30%. Moreover, the activity at 300 g/ha in assay [13] is 100%; in assay [14], 50%; in assay [15], 20%; in assay [16], 90%; in assay [17], 80%; in assay [18], 15%. In addition, the activity at 300 g/ha in assay [19] came to 20%; in assay [20], 0%.
Turning to `Cn1c(C(F)(F)F)cc(=O)n(-c2ccc(OCc3ccc(Cl)c(Cl)c3)cc2)c1=O` [Compound 41], the activity at 300 g/ha in assay [1] was found to be 95%; in assay [2] it was 85%; in [3], 100%; in [4] it was 20%; in assay [5], 80%; in assay [6], 40%. Further, the activity at 300 g/ha is 20% in assay [7]; 95% in [8]; 100% in [9]; 0% in [10]; 100% in assay [11]; 0% in assay [12]. Moreover, the activity at 300 g/ha came out at 100% in assay [13]; 20% in [14]; 25% in assay [15]; 45% in [16]; 35% in [17]; 85% in assay [18]. Besides, the activity at 300 g/ha in assay [19] and in assay [20] was 0% throughout.
With `Cn1c(C(F)(F)F)cc(=O)n(-c2ccc(OCc3ccccc3)cc2F)c1=O` [Compound 9], the activity at 300 g/ha in assay [1] worked out at 100%; in [2] it was 70%; in assay [3], 100%; in assay [4], 100%; in assay [5], 100%; in assay [6], 85%. Moreover, the activity at 300 g/ha was 30% in assay [7]; 90% in assay [8]; 100% in assay [9]; 80% in assay [10]; 100% in assay [11]; 0% in assay [12]. Further, the activity at 300 g/ha in assay [13] was 100%; in assay [14], 50%; in [15], 70%; in assay [16] it was 100%; in assay [17], 95%; in assay [18], 80%. The activity at 300 g/ha in assay [19] is 20%; in assay [20], 40%.
